Calls of active or inactive are those of the source. How the calls were made is not given here.
Test system: CCRIS mutagenicity, Ames/micronucleus/aberration tests
Assay: CCRIS mutagenicity studies
[1] = Test System: AMES SALMONELLA TYPHIMURIUM, Strain/Indicator: TA100, Metabolic Activation: NONE, Method: PREINCUBATION
[2] = Test System: AMES SALMONELLA TYPHIMURIUM, Strain/Indicator: TA1535, Metabolic Activation: NONE, Method: STANDARD PLATE
[3] = Test System: AMES SALMONELLA TYPHIMURIUM, Strain/Indicator: TA102, Metabolic Activation: NONE, Method: PREINCUBATION
[4] = Test System: AMES SALMONELLA TYPHIMURIUM, Strain/Indicator: TA100, Metabolic Activation: NONE, Method: STANDARD PLATE

In the case of CCCN(N=O)/C(N)=N/[N+](=O)[O-], the mutagenic call [1] is reported as “active; positive”, the mutagenic call (Test System: AMES SALMONELLA TYPHIMURIUM, Strain/Indicator: TA100, Metabolic Activation: RAT, LIVER, S-9, KC500 OR PHENOBARBITAL, Method: LIQUID SUSPENSION) is reported as “active; positive” and the mutagenic call (Test System: AMES SALMONELLA TYPHIMURIUM, Strain/Indicator: TA1535, Metabolic Activation: NONE, Method: PREINCUBATION) is reported as “active; positive”. The mutagenic call [2] was “active; positive”, the mutagenic call (Test System: AMES SALMONELLA TYPHIMURIUM, Strain/Indicator: TA1535, Metabolic Activation: RAT, LIVER, S-9, KC500 OR PHENOBARBITAL, Method: LIQUID SUSPENSION) was “active; positive” and the mutagenic call (Test System: AMES SALMONELLA TYPHIMURIUM, Strain/Indicator: YG7104, Metabolic Activation: NONE, Method: PREINCUBATION) was “active; positive”. For the same molecule, the mutagenic call (Test System: AMES SALMONELLA TYPHIMURIUM, Strain/Indicator: YG7108, Metabolic Activation: NONE, Method: PREINCUBATION) was “active; positive”, the mutagenic call (Test System: AMES SALMONELLA TYPHIMURIUM, Strain/Indicator: YG7112, Metabolic Activation: NONE, Method: PREINCUBATION) was “active; positive” and the mutagenic call (Test System: AMES SALMONELLA TYPHIMURIUM, Strain/Indicator: YG7113, Metabolic Activation: NONE, Method: PREINCUBATION) was “active; positive”.
c1ccc2cc3c(cc2c1)c1cccc2ccc4cccc3c4c21 was tested, and the mutagenic call (Test System: HUMAN H1A1V2 CELLS, Strain/Indicator: TK LOCUS, Metabolic Activation: NONE, Method: SUSPENSION/PLATE) was “active; positive”.
With CCn1cc(C(=O)O)c(=O)c2cc(F)c(N3CCNCC3)cc21 the mutagenic call (End Point: In vitro micronucleus, Test System: WTK-1 human lymphoma cells, Metabolic Activation: None) was “active; positive”, the mutagenic call (Test System: AMES SALMONELLA TYPHIMURIUM, Strain/Indicator: TA98, Metabolic Activation: NONE, Method: PREINCUBATION) was “inactive; negative” and the mutagenic call (Test System: AMES SALMONELLA TYPHIMURIUM, Strain/Indicator: TA98, Metabolic Activation: RAT LIVER S-9, AROCLOR 1254, Method: PREINCUBATION) was “inactive; negative”. For the same molecule, the mutagenic call [1] was “inactive; negative”, the mutagenic call (Test System: AMES SALMONELLA TYPHIMURIUM, Strain/Indicator: TA100, Metabolic Activation: RAT LIVER S-9, AROCLOR 1254, Method: PREINCUBATION) was “inactive; negative” and the mutagenic call [3] was “active; positive”. The mutagenic call (Test System: AMES SALMONELLA TYPHIMURIUM, Strain/Indicator: TA102, Metabolic Activation: NONE, Method: STANDARD PLATE) was “active; positive”, the mutagenic call (Test System: AMES SALMONELLA TYPHIMURIUM, Strain/Indicator: TA102, Metabolic Activation: RAT LIVER S-9, AROCLOR 1254, Method: PREINCUBATION) was “active; positive” and the mutagenic call (Test System: AMES SALMONELLA TYPHIMURIUM, Strain/Indicator: TA102, Metabolic Activation: RAT LIVER S-9, AROCLOR 1254, Method: STANDARD PLATE) was “active; positive”. For the same molecule, the mutagenic call (Test System: AMES SALMONELLA TYPHIMURIUM, Strain/Indicator: TA104, Metabolic Activation: NONE, Method: PREINCUBATION) was “active; positive”, the mutagenic call (Test System: AMES SALMONELLA TYPHIMURIUM, Strain/Indicator: TA104, Metabolic Activation: RAT LIVER S-9, AROCLOR 1254, Method: PREINCUBATION) was “active; positive” and the mutagenic call (Test System: AMES SALMONELLA TYPHIMURIUM, Strain/Indicator: UHT8414, Metabolic Activation: NONE, Method: PREINCUBATION) was “inactive; negative”. The mutagenic call (Test System: AMES SALMONELLA TYPHIMURIUM, Strain/Indicator: UHT8414, Metabolic Activation: RAT LIVER S-9, AROCLOR 1254, Method: PREINCUBATION) was “inactive; negative”, the mutagenic call (Test System: Ames Salmonella typhimurium, Strain/Indicator: TA102, Metabolic Activation: Rat, Liver, S9, Aroclor 1254, Method: Preincubation) was “active; positive. vitamin e (alpha-tocoferol) induced a statistically significant reduct” and the mutagenic call (Test System: CHINESE HAMSTER V-79, Strain/Indicator: V-79 (HPRT)/6-THIOGUANINE, Metabolic Activation: NONE) was “inactive; negative”. The mutagenic call (Test System: MOUSE LYMPHOMA, Strain/Indicator: L5178Y (HPRT)/6-THIOGUANINE, Metabolic Activation: NONE, Method: FLUCTUATION TEST) was “inactive; negative” and the mutagenic call (Test System: MOUSE LYMPHOMA, Strain/Indicator: L5178Y (TK+/TK-), Metabolic Activation: NONE, Method: FLUCTUATION TEST) was “inactive; negative”.
CCc1ccco1 was tested, and the mutagenic call (Test System: AMES SALMONELLA TYPHIMURIUM, Strain/Indicator: TA98, Metabolic Activation: HAMSTER, LIVER, S-9, AROCLOR 1254, Method: STANDARD PLATE) was “inactive; negative”, the mutagenic call (Test System: AMES SALMONELLA TYPHIMURIUM, Strain/Indicator: TA98, Metabolic Activation: NONE, Method: STANDARD PLATE) was “inactive; negative” and the mutagenic call (Test System: AMES SALMONELLA TYPHIMURIUM, Strain/Indicator: TA98, Metabolic Activation: RAT, LIVER, S-9, AROCLOR 1254, Method: STANDARD PLATE) was “inactive; negative”. The mutagenic call (Test System: AMES SALMONELLA TYPHIMURIUM, Strain/Indicator: TA100, Metabolic Activation: HAMSTER, LIVER, S-9, AROCLOR 1254, Method: STANDARD PLATE) was “inactive; negative”, the mutagenic call [4] was “inactive; negative” and the mutagenic call (Test System: AMES SALMONELLA TYPHIMURIUM, Strain/Indicator: TA100, Metabolic Activation: RAT, LIVER, S-9, AROCLOR 1254, Method: STANDARD PLATE) was “inactive; negative”. For the same molecule, the mutagenic call (Test System: AMES SALMONELLA TYPHIMURIUM, Strain/Indicator: TA1535, Metabolic Activation: HAMSTER, LIVER, S-9, AROCLOR 1254, Method: STANDARD PLATE) was “inactive; negative”, the mutagenic call [2] was “inactive; negative” and the mutagenic call (Test System: AMES SALMONELLA TYPHIMURIUM, Strain/Indicator: TA1535, Metabolic Activation: RAT, LIVER, S-9, AROCLOR 1254, Method: STANDARD PLATE) was “inactive; negative”. For the same molecule, the mutagenic call (Test System: AMES SALMONELLA TYPHIMURIUM, Strain/Indicator: TA1537, Metabolic Activation: HAMSTER, LIVER, S-9, AROCLOR 1254, Method: STANDARD PLATE) was “inactive; negative”, the mutagenic call (Test System: AMES SALMONELLA TYPHIMURIUM, Strain/Indicator: TA1537, Metabolic Activation: NONE, Method: STANDARD PLATE) was “inactive; negative” and the mutagenic call (Test System: AMES SALMONELLA TYPHIMURIUM, Strain/Indicator: TA1537, Metabolic Activation: RAT, LIVER, S-9, AROCLOR 1254, Method: STANDARD PLATE) was “inactive; negative”. For the same molecule, the mutagenic call (Test System: AMES SALMONELLA TYPHIMURIUM, Strain/Indicator: TA1538, Metabolic Activation: HAMSTER, LIVER, S-9, AROCLOR 1254, Method: STANDARD PLATE) was “inactive; negative”, the mutagenic call (Test System: AMES SALMONELLA TYPHIMURIUM, Strain/Indicator: TA1538, Metabolic Activation: NONE, Method: STANDARD PLATE) was “inactive; negative” and the mutagenic call (Test System: AMES SALMONELLA TYPHIMURIUM, Strain/Indicator: TA1538, Metabolic Activation: RAT, LIVER, S-9, AROCLOR 1254, Method: STANDARD PLATE) was “inactive; negative”. For the same molecule, the mutagenic call (Test System: MOUSE LYMPHOMA, Strain/Indicator: L5178Y (TK+/TK-), Metabolic Activation: NONE, Method: SUSPENSION/PLATE) was “inactive; negative”, the mutagenic call (Test System: MOUSE LYMPHOMA, Strain/Indicator: L5178Y (TK+/TK-), Metabolic Activation: RAT, LIVER, S-9, AROCLOR 1254, Method: SUSPENSION/PLATE) was “active; positive” and the mutagenic call (Test System: Mouse lymphoma, Strain/Indicator: L5178Y (tk+/tk-), Metabolic Activation: Rat, Liver, S-9, Aroclor 1254, Method: Suspension/plate) was “active; equivocal (previous evaluation positive)”.
For CC(Br)(CO)CBr (stereo unspecified), the mutagenic call [4] was “inactive; negative”.
In the case of CNc1ccccc1C(=O)OC, the mutagenic call (Test System: AMES SALMONELLA TYPHIMURIUM, Strain/Indicator: TA97, Metabolic Activation: NONE, Method: PREINCUBATION) is reported as “inactive; negative”, the mutagenic call (Test System: AMES SALMONELLA TYPHIMURIUM, Strain/Indicator: TA97, Metabolic Activation: RAT, LIVER, S-9, AROCLOR 1254, Method: PREINCUBATION) is reported as “inactive; negative” and the mutagenic call [3] is reported as “inactive; negative”. For the same molecule, the mutagenic call (Test System: AMES SALMONELLA TYPHIMURIUM, Strain/Indicator: TA102, Metabolic Activation: RAT, LIVER, S-9, AROCLOR 1254, Method: PREINCUBATION) was “inactive; negative” and the mutagenic call (Test System: UDS RODENT HEPATOCYTES, Strain/Indicator: THY INCORP (NON-S-PHASE), Metabolic Activation: NONE, Method: AUTORADIOGRAPHY) was “inactive; negative”.

From PubChem BioAssay AID1259407 (Chemical Carcinogenesis Research Information System (CCRIS), 2018)
